Measured values reported in US10342777B2, “Caffeoylquinic acid-rich extract and preparation as well as use thereof” (Macau University of Science and Technology, priority 2015, dated 2019).

Key:
[1] = system: Lactate dehydrogenase (LDH); test: Serum LDH activity 24 h after I/R (commercial kit); type: in vivo, rat; details: 5 mg/kg, P<0.01
Description: (§1) An ischemia reperfusion injury was produced in rat heart based on Buerke's description with our modifications (Buerke et al., Proc Natl Acad Sci USA, 1995, 92:8031-8035). Sixty rats were randomly divided into six groups (n=10 per group): (I) Sham group (given saline vehicle without I/R); (II) I/R group with saline alone; (Ill) I/R group with 10 mg/kg of the caffeoylquinic acid-rich extract of example 1; (IV) I/R group with 20 mg/kg of the caffeoylquinic acid-rich extract of example 1; (V) I/R group with 40 mg/kg of the caffeoylquinic acid-rich extract of example 1; […] The vehicle or drugs were administered 1 min before reperfusion via single bolus tail vein injection. Rats were anesthetized with pentobarbital sodium (70 mg/kg body weight) by an i.p. injection of a mixture of 20% Dorminal (1 ml contains 200 mg pentobarbital sodium, Alfasan) and sterile saline at a ratio of 1:3 (VN). Using a PowerLab (ADInstruments Pty Ltd., Castle Hill, Australia), mean aortic pressure (MAP) was recorded from the Millar catheter. Electrocardiogram (ECG) in lead II was also recorded through the needle electrodes attached to the limbs. The heart rate and ST-segment elevation were calculated off-line. The chest was opened at the left fourth intercostal space. […] Activities of LDH and CK-MB were determined by using commercial assay kits according to manufacturer's instructions. […]

[2] = system: Creatine kinase-MB (CK-MB); test: Serum CK-MB activity 24 h after I/R (commercial kit); type: in vivo, rat; details: 5 mg/kg, P<0.01
Description: as §1

[3] = system: myocardial I/R injury in rat heart; test: ECG (lead II) ST-segment depression and heart rate 24 h after I/R; type: in vivo; details: 5 mg/kg; 24 h reperfusion
Description: An ischemia reperfusion injury was produced in rat heart based on Buerke's description with our modifications (Buerke et al., Proc Natl Acad Sci USA, 1995, 92:8031-8035). Sixty rats were randomly divided into six groups (n=10 per group): (I) Sham group (given saline vehicle without I/R); (II) I/R group with saline alone; (Ill) I/R group with 10 mg/kg of the caffeoylquinic acid-rich extract of example 1; (IV) I/R group with 20 mg/kg of the caffeoylquinic acid-rich extract of example 1; (V) I/R group with 40 mg/kg of the caffeoylquinic acid-rich extract of example 1; […] The vehicle or drugs were administered 1 min before reperfusion via single bolus tail vein injection. […] Using a PowerLab (ADInstruments Pty Ltd., Castle Hill, Australia), mean aortic pressure (MAP) was recorded from the Millar catheter. Electrocardiogram (ECG) in lead II was also recorded through the needle electrodes attached to the limbs. The heart rate and ST-segment elevation were calculated off-line. […] Electrocardiogram (ECG) in lead II was recorded through the needle electrodes attached to the limbs continuously for 15 min with an electrocardiograph (ASB240U, […], China). The heart rate and ST-segment depression were calculated off-line. […] The amplitude of ST-segment and heart rate were recorded and used as the index of ischemic electrocardiograph changes. […]

[4] = system: TNF-α; test: Cardiac tissue TNF-α level by ELISA 24 h after I/R; type: in vivo, rat; details: 5 mg/kg
Description: (§2) An ischemia reperfusion injury was produced in rat heart based on Buerke's description with our modifications (Buerke et al., Proc Natl Acad Sci USA, 1995, 92:8031-8035). Sixty rats were randomly divided into six groups (n=10 per group): (I) Sham group (given saline vehicle without I/R); (II) I/R group with saline alone; (Ill) I/R group with 10 mg/kg of the caffeoylquinic acid-rich extract of example 1; (IV) I/R group with 20 mg/kg of the caffeoylquinic acid-rich extract of example 1; (V) I/R group with 40 mg/kg of the caffeoylquinic acid-rich extract of example 1; […] The vehicle or drugs were administered 1 min before reperfusion via single bolus tail vein injection. […] Using a PowerLab (ADInstruments Pty Ltd., Castle Hill, Australia), mean aortic pressure (MAP) was recorded from the Millar catheter. Electrocardiogram (ECG) in lead II was also recorded through the needle electrodes attached to the limbs. The heart rate and ST-segment elevation were calculated off-line. […] Levels of TNF-α and IL-6 were measured using ELISA kits for TNF-α (RayBiotech, Inc., Norcross Ga.) and IL-6 (R & D System). […] The contents of total protein in the supernatants were determined by using a Bio-Rad kit (Bio-Rad Laboratories, Hercules, Calif., USA). […] To determine the effect of a caffeoylquinic acid-rich extract on pro-inflammatory cytokines, cardiac tissue levels of TNF-α and IL-6 after I/R were evaluated.

[5] = system: JNK; test: Western blot of phospho-JNK in left ventricular tissue after I/R; type: in vivo, rat; details: 5 mg/kg before reperfusion
[6] = system: myocardial I/R injury in rat heart; test: Myocardial infarct size by TTC staining after ischemia/reperfusion; type: in vivo; details: 5 mg/kg i.v. tail vein 1 min before reperfusion; positive control; vehicle 15.2±1.4%
Description: An ischemia reperfusion injury was produced in rat heart based on Buerke's description with our modifications (Buerke et al., Proc Natl Acad Sci USA, 1995, 92:8031-8035). Sixty rats were randomly divided into six groups (n=10 per group): (I) Sham group (given saline vehicle without I/R); (II) I/R group with saline alone; (Ill) I/R group with 10 mg/kg of the caffeoylquinic acid-rich extract of example 1; (IV) I/R group with 20 mg/kg of the caffeoylquinic acid-rich extract of example 1; (V) I/R group with 40 mg/kg of the caffeoylquinic acid-rich extract of example 1; […] The vehicle or drugs were administered 1 min before reperfusion via single bolus tail vein injection. […] Using a PowerLab (ADInstruments Pty Ltd., Castle Hill, Australia), mean aortic pressure (MAP) was recorded from the Millar catheter. Electrocardiogram (ECG) in lead II was also recorded through the needle electrodes attached to the limbs. The heart rate and ST-segment elevation were calculated off-line. […] The images of the slice were captured by a LEICA digital camera 480 and infarct area in each slice was measured by computed planimetry with an image analyzing program Image J1.26 (Wayne Rasband, National Institutes of Health, USA). Then the infarct area of each slice was determined by manual delineation of TTC-negative pale area of the image. […]

[7] = system: IL-6; test: Cardiac tissue IL-6 level by ELISA 24 h after I/R; type: in vivo, rat; details: 5 mg/kg
Description: as §2

O=C(/C=C/c1ccc(O)c(O)c1)OCCc1ccccc1 [CAPE, 2-phenylethyl (2E)-3-(3,4-dihydroxyphenyl)acrylate]
serum LDH [1]: 287±18.8 U/L
serum CK-MB [2]: 913±40.2 U/L
I/R-induced ST-segment depression [3]: significant protective effects
heart rate decrease after I/R [3]: slight effect without significant difference
cardiac tissue level of TNF-α [4]: markedly decreased
JNK phosphorylation [5]: markedly reduced
myocardial infarct size [6]: 7.9±0.9%
cardiac tissue level of IL-6 [7]: markedly decreased
